We go through 18 compounds from patent US20150203517A1, “Prodrugs of Compounds that Enhance Antifungal Activity and Compositions of Said Prodrugs” (priority 2014, published 2015).

Molecules are shown by their SMILES. Structures can show the parent of a compound that is named as a salt. Where two headings read alike, the source gives them in different places.

Data set [1] can be described thus: Saline solubility at 1.00 mg/mL and 0.50 mg/mL (with pH by indicator paper). It is filed as physicochemical. The note with it: for pH at 1.00 mg/mL of MGCD290 in saline: final concentration of hydroxamate 1 1.00 mg/mL, pH indicator paper; for solubility at 1 h: saline or isotonic, thermodynamic from solid, centrifuged, soluble = no precipitate formed. Here is the method:
Assays were performed to determine the saline solubility at 1.00 and 0.50 mg/ml and the stability of certain of the prodrug compounds of Examples 1-111. The following procedures were used.
Step 1. Sample preparation. An amount of the compound sample was precisely weighed to correspond to around 5 mg of the hydroxamate of compound 1, taking into account the mass of the leaving group and the salt factor if applicable. The sample was placed in a 16×125 mm glass screw cap tube. Saline was added so that the final concentration of hydroxamate 1 was 1.00 mg/mL. The pH was measured with pH indicator paper. The tube was shaken for 1 hour on a Vortex apparatus then centrifuged at 3000 rpm (1800 rcf) for 5 minutes. If the compound example was soluble (no precipitate formed) the procedure continued to step 2. If a precipitate formed then the sample was diluted with saline so that the final concentration of the hydroxamate of compound 1 was 0.50 mg/mL, and the shaking and centrifuging steps were repeated. If the compound example was soluble (no precipitate formed) the procedure continued to step 2. If a precipitate formed the sample was discarded. Step 2. HPLC analysis. A 500 μL aliquot of a sample solution prepared according to Step 1 was taken up into a 1.5 mL injection vial to which was added 500 μL of saline. The vial was shaken on a Vortex apparatus, injected into the HPLC instrument (UV detection, zero time point) and the retention time and purity of the sample compound were determined. The injection was repeated after 6 hours and 24 hours, and a comparison was made of the retention time, peak areas and level of degradation (if any) using the GDADI50 method.

Data set [2] can be described thus: Conversion of prodrugs to compound 1 in mouse plasma. It counts as in vitro ADME. The note with it: mouse plasma (Na-Heparin treated). The procedure: Step 1. Sample preparation. A quantity of blank mouse plasma (Na-Heparin treated) was incubated at 37° C. for 30 minutes. An amount of the compound sample was precisely weighed to correspond to around 5.00 mg of the hydroxamate of compound 1, taking into account the mass of the leaving group and the salt factor if applicable. The sample was placed in a 16×125 mm glass screw cap tube. The incubated blank mouse plasma was added so that the final concentration of hydroxamate 1 was 1.00 mg/mL. The sample was sonicated for 30 seconds, shaken for 30 seconds on a Vortex apparatus, and run through the HPLC procedure of Step 2 to get a time point zero value. The samples were stored in an incubator at 37° C., and the HPLC analysis of Step 2 was repeated at 30 minutes and 1 hour
Step 2. Protein precipitation and HPLC analysis of plasma. A 50 μL aliquot of plasma was taken in a 1.5 mL Eppendorf vial, to which was added 200 μL of MeCN. The vial was capped and shaken on a Vortex apparatus for 30 seconds, then centrifuged at 13000 rpm (15700 rcf) for five minutes. When centrifuging was complete, 100 μL of the supernatant was placed in an injection vial containing an insert, to which was added 100 μL of 0.1% formic acid in water. The vial was capped and shaken on a Vortex apparatus for 30 seconds, and the contents were injected into the HPLC-UV instrument, and a comparison was made of the retention time, peak areas and level of degradation (if any) using the GDADI50 method.

[3] abbreviates: 1.00 mg/mL as hydroxamate 1, shaken 1 hour, read-out: Soluble at 1.00 mg/mL of MGCD290 (Y/N).
Where [4] appears, read: 0.50 mg/mL as hydroxamate 1, shaken 1 hour, read-out: Soluble at 0.5 mg/mL of MGCD290 (Y/N).

Turning to `COCCOCCOCCOCCOCCOCC(=O)N1CCC(C(=O)ONC(=O)Cc2ccc(CCCCc3ccccc3)cc2)CC1` [Compound 120], the “pH at 1.00 mg/mL of MGCD290 in saline” value in data set [1] is on record as 4.5-5. The solubility at 1 h in data set [1] (setting [3]) is > 1000 µg/mL. In addition, in data set [2] (37° C., 0.5 hr), the “Prodrug loss at 0.5 hr” value was found to be 100%. Also, the “Prodrug loss at 1 hr” value in data set [2] (37° C., 1 hr) was 100%. Also, the “Prodrug solubility in plasma” value in data set [2] (equivalent to 1.00 mg/mL of compound 1, * = Plasma quickly became cloudy) is given as “Yes”.

On to `COCCOCCOCC(=O)N1CC(CCCC(=O)ONC(=O)Cc2ccc(CCCCc3ccccc3)cc2)C1` [Compound 128B], for which the “pH at 1.00 mg/mL of MGCD290 in saline” value in data set [1] was 5.5-6. The solubility at 1 h was < 500 µg/mL in data set [1] (setting [4]) and < 1000 µg/mL in data set [1] (setting [3]).

`COCCOCCOCCOCCOCC(=O)NC[C@H](C)C(=O)ONC(=O)Cc1ccc(CCCCc2ccccc2)cc1` [Compound 87, (S)—N-(2-Methyl-3-oxo-3-(2-(4-(4-phenylbutyl)phenyl)acetamidooxy)propyl)-2,5,8,11,14-pentaoxahexadecan-16-amide]: in data set [1], the “pH at 1.00 mg/mL of MGCD290 in saline” value was 4.5-5. Besides, the solubility at 1 h in data set [1] (setting [4]) was < 500 µg/mL; in data set [1] (setting [3]) it was < 1000 µg/mL.

`COCCOCCOCC(=O)NCCCC[C@H](NC(=O)COCCOCCOC)C(=O)NC[C@H](C)C(=O)ONC(=O)Cc1ccc(CCCCc2ccccc2)cc1` [Compound 91]: in data set [1], the “pH at 1.00 mg/mL of MGCD290 in saline” value is given as 4.5-5. Further, the solubility at 1 h in data set [1] (setting [3]) was > 1000 µg/mL.

With `COCCOCCOCCOCCOCC(=O)NCCC(=O)ONC(=O)Cc1ccc(CCCCc2ccccc2)cc1` [Compound 61], the “pH at 1.00 mg/mL of MGCD290 in saline” value in data set [1] is given as 4.5-5. For the same compound, the solubility at 1 h in data set [1] (setting [4]) is < 500 µg/mL; in data set [1] (setting [3]) it was < 1000 µg/mL.

For `Cl.O=C(Cc1ccc(CCCCc2ccccc2)cc1)NOC(=O)COC1CCNCC1` [Compound 125, 2-(4-(4-phenylbutyl)phenyl)-N-(2-(piperidin-4-yloxy)acetoxy)acetamide hydrochloride], the “pH at 1.00 mg/mL of MGCD290 in saline” value in data set [1] is 4.5-5. The figures for the solubility at 1 h in data set [1] (setting [4]) and in data set [1] (setting [3]) were < 500 µg/mL and < 1000 µg/mL, respectively.

On to `O=C1COCCOCC(=O)N[C@H](C(=O)NCCC(=O)ONC(=O)Cc2ccc(CCCCc3ccccc3)cc2)CCCCN1` [Compound 83, (S)-6,14-Dioxo-N-(3-oxo-3-(2-(4-(4-phenylbutyl)phenyl)acetamidooxy)propyl)-1,4-dioxa-7,13-diazacyclopentadecane-8-carboxamide], for which, in data set [1], the “pH at 1.00 mg/mL of MGCD290 in saline” value is on record as 4.5-5. The results for the solubility at 1 h in data set [1] (setting [4]) and in data set [1] (setting [3]) were < 500 µg/mL and < 1000 µg/mL, respectively.

On to `COCCOCCOCCOCCOCC(=O)N1CCN(C(=O)ONC(=O)Cc2ccc(CCCCc3ccccc3)cc2)CC1` [Compound 81], for which the “pH at 1.00 mg/mL of MGCD290 in saline” value in data set [1] was 4.5-5. The solubility at 1 h in data set [1] (setting [3]) was > 1000 µg/mL.

On to `COCCOCC(=O)NCCCC[C@H](NC(=O)COCCOC)C(=O)ONC(=O)Cc1ccc(CCCCc2ccccc2)cc1` [Compound 70], for which, in data set [1], the “pH at 1.00 mg/mL of MGCD290 in saline” value was 4.5-5. Further, the solubility at 1 h in data set [1] (setting [4]) was < 500 µg/mL; in data set [1] (setting [3]), < 1000 µg/mL.

With `COCCOCCOCC(=O)N1CCC(CCC(=O)ONC(=O)Cc2ccc(CCCCc3ccccc3)cc2)CC1` [Compound 112], the “pH at 1.00 mg/mL of MGCD290 in saline” value in data set [1] is listed as 5.5-6. The solubility at 1 h was < 500 µg/mL in data set [1] (setting [4]) and < 1000 µg/mL in data set [1] (setting [3]).

As for `CC(C)OC(=O)ONC(=O)Cc1ccc(CCCCc2ccccc2)cc1` [Compound 76, N-(isopropoxycarbonyloxy)-2-(4-(4-phenylbutyl)phenyl)acetamide], the “pH at 1.00 mg/mL of MGCD290 in saline” value in data set [1] is reported as 4.5-5. The solubility at 1 h in data set [1] (setting [4]) is < 500 µg/mL; in data set [1] (setting [3]) it was < 1000 µg/mL.

For the compound `COCCOCC(=O)NCCCC[C@H](NC(=O)COCCOC)C(=O)N1CCC[C@H]1C(=O)ONC(=O)Cc1ccc(CCCCc2ccccc2)cc1` [Compound 108], in data set [1], the “pH at 1.00 mg/mL of MGCD290 in saline” value is on record as 4.5-5. Besides, the results for the solubility at 1 h in data set [1] (setting [4]) and in data set [1] (setting [3]) were < 500 µg/mL and < 1000 µg/mL, respectively.

Regarding `CC(=O)OCC(=O)NCCCC[C@H](NC(=O)COC(C)=O)C(=O)NCCC(=O)ONC(=O)Cc1ccc(CCCCc2ccccc2)cc1` [Compound 154], the “pH at 1.00 mg/mL of MGCD290 in saline” value in data set [1] is given as 4.5-5. Besides, the solubility at 1 h is < 500 µg/mL in data set [1] (setting [4]) and < 1000 µg/mL in data set [1] (setting [3]).

For the compound `CCNC(=O)ONC(=O)Cc1ccc(CCCCc2ccccc2)cc1` [Compound 74], the “pH at 1.00 mg/mL of MGCD290 in saline” value in data set [1] is recorded as 4.5-5. The solubility at 1 h in data set [1] (setting [4]) was < 500 µg/mL; in data set [1] (setting [3]), < 1000 µg/mL.

As for `COCCOCCOCC(=O)NCCC[C@H](NC(=O)COCCOCCOC)C(=O)NCCC(=O)ONC(=O)Cc1ccc(CCCCc2ccccc2)cc1` [Compound 159], the “pH at 1.00 mg/mL of MGCD290 in saline” value in data set [1] is 4.5-5. In addition, the solubility at 1 h in data set [1] (setting [4]) is < 500 µg/mL; in data set [1] (setting [3]), < 1000 µg/mL.

For `CC(=O)OCC(=O)NC[C@H](NC(=O)COC(C)=O)C(=O)NCCC(=O)ONC(=O)Cc1ccc(CCCCc2ccccc2)cc1` [Compound 146], the “pH at 1.00 mg/mL of MGCD290 in saline” value in data set [1] is reported as 4.5-5. Besides, the solubility at 1 h in data set [1] (setting [4]) was < 500 µg/mL; in data set [1] (setting [3]), < 1000 µg/mL.

On to `O=C(Cc1ccc(CCCCc2ccccc2)cc1)NOC(=O)CN1C(=O)OC[C@@H]1c1ccccc1` [Compound 52A], for which, in data set [1], the “pH at 1.00 mg/mL of MGCD290 in saline” value is reported as 4.5-5. The figures for the solubility at 1 h in data set [1] (setting [4]) and in data set [1] (setting [3]) were < 500 µg/mL and < 1000 µg/mL, respectively.

In the case of `NCCNCC(=O)NCCCC(=O)ONC(=O)Cc1ccc(CCCCc2ccccc2)cc1` [Compound 133, 2-(2-Aminoethylamino)-N-(4-oxo-4-(2-(4-(4-phenylbutyl)phenyl)acetamidooxy)butyl) acetamide dihydrochloride], the “pH at 1.00 mg/mL of MGCD290 in saline” value in data set [1] was 4.5-5. The solubility at 1 h in data set [1] (setting [4]) was < 500 µg/mL; in data set [1] (setting [3]), < 1000 µg/mL.
